For data set [1], the system named is AR mRNA. Nature of the data set: Antisense inhibition of human AR in HuVEC cells, single concentration (electroporation, qRT-PCR RTS3559). It is filed as cell-based. To be noted: ~24 h. How it is done:
Antisense oligonucleotides were designed targeting an AR nucleic acid and were tested for their effects on AR mRNA in vitro. The antisense oligonucleotides were tested in a series of experiments that had similar culture conditions. […] Human primer probe set RTS3559 (forward sequence [NT], designated herein as SEQ ID NO: 9; reverse sequence [NT], designated herein as SEQ ID NO: 10; probe sequence [NT], designated herein as SEQ ID NO: 11) was used to measure mRNA levels. AR mRNA levels were adjusted according to total RNA content, as measured by RIBOGREEN®. […] A total of 155 oligonucleotides were tested. Additional antisense oligonucleotides were designed targeting an AR nucleic acid and were tested for their effects on AR mRNA in vitro. […] Human primer probe set RTS3559 was used to measure mRNA levels. AR mRNA levels were adjusted according to total RNA content, as measured by RIBOGREEN®. […] A total of 82 oligonucleotides were tested. Additional antisense oligonucleotides were designed targeting an AR nucleic acid and were tested for their effects on AR mRNA in vitro. […] Human primer probe set RTS3559 was used to measure mRNA levels. AR mRNA levels were adjusted according to total RNA content, as measured by RIBOGREEN®. […] A total of 40 oligonucleotides were tested. Additional antisense oligonucleotides were designed targeting an AR nucleic acid and were tested for their effects on AR mRNA in vitro. […] Human primer probe set RTS3559 was used to measure mRNA levels. AR mRNA levels were adjusted according to total RNA content, as measured by RIBOGREEN®. […] A total of 75 oligonucleotides were tested. Additional antisense oligonucleotides were designed targeting an AR nucleic acid and were tested for their effects on AR mRNA in vitro. […] Human primer probe set RTS3559 was used to measure mRNA levels. AR mRNA levels were adjusted according to total RNA content, as measured by RIBOGREEN®. […] A total of 616 oligonucleotides were tested. Additional antisense oligonucleotides were designed targeting an AR nucleic acid and were tested for their effects on AR mRNA in vitro. […] Human primer probe set RTS3559 was used to measure mRNA levels. AR mRNA levels were adjusted according to total RNA content, as measured by RIBOGREEN®. […] A total of 385 oligonucleotides were tested.
A general note: Real-time PCR tracks product formation cycle by cycle.

Data set [2] relates to AR mRNA. In words: Dose-dependent antisense inhibition of human AR in HuVEC cells (electroporation, qRT-PCR RTS3559, IC50). It is filed as cell-based. To be noted: HuVEC, ~16 h. As for the experimental part:
(§1) After a treatment period of approximately 16 hours, RNA was isolated from the cells and AR mRNA levels were measured by quantitative real-time PCR. Human AR primer probe set RTS3559 was used to measure mRNA levels. AR mRNA levels were adjusted according to total RNA content, as measured by RIBOGREEN®. […] The antisense oligonucleotides were tested in a series of experiments that had similar culture conditions.
as §1, §1, §1, §1
(§2) After a treatment period of approximately 16 hours, RNA was isolated from the cells and AR mRNA levels were measured by quantitative real-time PCR. Human AR primer probe set RTS3559 was used to measure mRNA levels. AR mRNA levels were adjusted according to total RNA content, as measured by RIBOGREEN®.
as §2

Oligonucleotides are written 5' to 3', each unit as a sugar letter and its base; * is a phosphorothioate linkage, no mark a phosphodiester; rarer units and linkages stand in square brackets, end groups in braces. Plain capitals give the bases only. e = 2'-O-(2-methoxyethyl) (MOE); k = constrained ethyl (cEt); [5mC] = 5-methylcytosine; d = 2'-deoxy (DNA)

The % inhibition is the relative decrease from the control value, in per cent. A higher % inhibition goes with a strong effect. As usually defined, the IC50 is the point on the concentration scale where inhibition reaches its midpoint.

With “560071 (eT*eG*eG*eT*eT*dG*dA*dT*dT*dT*dA*dA*dT*dG*dG*eT*eT*eG*e[5mC]*eA) [compound 560071]”, in data set [1] (500 nM ASO, Table 5), the “% inhibition” value amounted to 73%. In addition, the “percent inhibition of AR” value in data set [2] (31.25 nM, Table 6) is on record as 7%; in data set [2] (62.5 nM, Table 6), 0%; in data set [2] (125.0 nM, Table 6) it was 19%; in data set [2] (500.0 nM, Table 6), 57%; in data set [2] (1000.0 nM, Table 6) it was 76%. Also, it took 400 nM to reach half-maximal inhibition in data set [2] (Table 6) (IC50).
For the substance “560098 (kT*kG*kA*dT*dT*dT*dA*dA*dT*dG*dG*dT*dT*kG*k[5mC]*kA; further chemistry not given here) [compound 560098]”, the “% inhibition” value in data set [1] (250 nM ASO, Table 7) is recorded as 69%; in data set [1] (500 nM ASO, Table 5), 99%. Moreover, the “percent inhibition of AR” value was found to be 20% in data set [2] (31.25 nM, Table 6); 30% in data set [2] (31.25 nM, Table 8); 41% in data set [2] (62.5 nM, Table 6); 54% in data set [2] (62.5 nM, Table 8); 64% in data set [2] (125.0 nM, Table 6); 65% in data set [2] (125.0 nM, Table 8). Further, the “percent inhibition of AR” value in data set [2] (500.0 nM, Table 6) amounted to 94%; in data set [2] (500.0 nM, Table 8), 89%; in data set [2] (1000.0 nM, Table 6) it was 94%; in data set [2] (1000.0 nM, Table 8) it was 97%. The IC50 is 100 nM in data set [2] (Table 6) and 70 nM in data set [2] (Table 8).
As for “560099 (kG*kG*kT*dT*dG*dA*dT*dT*dT*dA*dA*dT*dG*kG*kT*kT) [compound 560099]”, in data set [1] (500 nM ASO, Table 5), the “% inhibition” value is 95%. For the same substance, the “percent inhibition of AR” value in data set [2] (31.25 nM, Table 6) came out at 13%; in data set [2] (62.5 nM, Table 6), 29%; in data set [2] (125.0 nM, Table 6) it was 58%; in data set [2] (500.0 nM, Table 6), 89%; in data set [2] (1000.0 nM, Table 6), 94%. This substance showed a half-inhibitory concentration (IC50) in data set [2] (Table 6) of 100 nM.
As for “560100 (antisense kT*kG*kG*dT*dT*dG*dA*dT*dT*dT*dA*dA*dT*kG*kG*kT) [compound 560100]”, the “% inhibition” value in data set [1] (500 nM ASO, Table 5) was 91%. Moreover, the “percent inhibition of AR” value in data set [2] (31.25 nM, Table 6) is on record as 16%; in data set [2] (62.5 nM, Table 6) it was 24%; in data set [2] (125.0 nM, Table 6) it was 53%; in data set [2] (500.0 nM, Table 6) it was 81%; in data set [2] (1000.0 nM, Table 6), 93%. Further, in data set [2] (Table 6), it took 100 nM to reach half-maximal inhibition (IC50).
As for “560132 (antisense kG*kT*kT*dG*dA*dT*dT*dT*dA*dA*dT*dG*kG*kT*kT*eG) [compound 560132]”, the “% inhibition” value in data set [1] (1,000 nM ASO, Table 13) is listed as 58%. Also, the “percent inhibition of AR” value in data set [2] (31.25 nM, Table 14) is reported as 8%; in data set [2] (62.5 nM, Table 14), 19%; in data set [2] (125.0 nM, Table 14), 21%; in data set [2] (500.0 nM, Table 14), 65%; in data set [2] (1000.0 nM, Table 14), 85%. For the same substance, in data set [2] (Table 14), the concentration for half-maximal inhibition (IC50) was 252 nM.
For “560133 (antisense kA*kT*kG*dG*dT*dT*dG*dA*dT*dT*dT*dA*kA*kT*kG*eG) [compound 560133]”, in data set [1] (1,000 nM ASO, Table 13), the “% inhibition” value turned out to be 53%. Also, the “percent inhibition of AR” value worked out at 17% in data set [2] (31.25 nM, Table 14); 15% in data set [2] (62.5 nM, Table 14); 24% in data set [2] (125.0 nM, Table 14); 58% in data set [2] (500.0 nM, Table 14); 79% in data set [2] (1000.0 nM, Table 14). Besides, the IC50 in data set [2] (Table 14) was found to be 336 nM.
On to “560137 (antisense TTGATTTAATGGTTGC; all C 5-methyl, all phosphorothioate, sugars by position not given here; further chemistry not fully specified) [compound 560137]”, for which the “% inhibition” value in data set [1] (250 nM ASO, Table 7) is 66%; in data set [1] (500 nM ASO, Table 5), 95%. Also, the “percent inhibition of AR” value is recorded as 27% in data set [2] (31.25 nM, Table 6); 35% in data set [2] (31.25 nM, Table 8); 49% in data set [2] (62.5 nM, Table 6); 39% in data set [2] (62.5 nM, Table 8); 61% in data set [2] (125.0 nM, Table 6); 64% in data set [2] (125.0 nM, Table 8). Besides, the “percent inhibition of AR” value in data set [2] (500.0 nM, Table 6) is 91%; in data set [2] (500.0 nM, Table 8) it was 89%; in data set [2] (1000.0 nM, Table 6) it was 96%; in data set [2] (1000.0 nM, Table 8), 94%. The figures for the IC50 in data set [2] (Table 6) and in data set [2] (Table 8) were 100 nM and 80 nM, respectively.
Take “569215 (antisense kT*kG*kG*dT*dT*dG*dA*dT*dT*dT*dA*dA*kT*kG*kG*eT) [compound 569215]”: in data set [1] (1,000 nM ASO, Table 13), the “% inhibition” value is listed as 59%. In addition, the “percent inhibition of AR” value in data set [2] (31.25 nM, Table 14) is listed as 12%; in data set [2] (62.5 nM, Table 14), 2%; in data set [2] (125.0 nM, Table 14) it was 26%; in data set [2] (500.0 nM, Table 14), 71%; in data set [2] (1000.0 nM, Table 14), 90%. In data set [2] (Table 14), this substance had a half-maximal inhibitory concentration (IC50) of 234 nM.
For the substance “569220 (antisense eA*kT*kG*kG*dT*dT*dG*dA*dT*dT*dT*dA*kA*kT*kG*eG) [compound 569220]”, the “% inhibition” value in data set [1] (1,000 nM ASO, Table 13) is listed as 58%. For the same substance, the “percent inhibition of AR” value is given as 11% in data set [2] (31.25 nM, Table 14); 29% in data set [2] (62.5 nM, Table 14); 34% in data set [2] (125.0 nM, Table 14); 59% in data set [2] (500.0 nM, Table 14); 78% in data set [2] (1000.0 nM, Table 14). Besides, the half-maximal inhibitory concentration (IC50) in data set [2] (Table 14) stood at 275 nM.
Consider “569222 (antisense eT*eT*kG*kA*kT*dT*dT*dA*dA*dT*dG*dG*dT*kT*kG*k[5mC]) [compound 569222]”, for which the “% inhibition” value in data set [1] (250 nM ASO, Table 7) was 74%. Besides, the “percent inhibition of AR” value in data set [2] (31.25 nM, Table 8) amounted to 36%; in data set [2] (62.5 nM, Table 8), 48%; in data set [2] (125.0 nM, Table 8), 67%; in data set [2] (500.0 nM, Table 8) it was 91%; in data set [2] (1000.0 nM, Table 8) it was 98%. Besides, the IC50 in data set [2] (Table 8) was found to be 60 nM.
Turning to “569223 (antisense eG*eT*kT*kG*kA*dT*dT*dT*dA*dA*dT*dG*dG*kT*kT*kG) [compound 569223]”, in data set [1] (1,000 nM ASO, Table 13), the “% inhibition” value was 59%. In addition, the “percent inhibition of AR” value in data set [2] (31.25 nM, Table 14) was determined as 21%; in data set [2] (62.5 nM, Table 14), 20%; in data set [2] (125.0 nM, Table 14), 30%; in data set [2] (500.0 nM, Table 14) it was 73%; in data set [2] (1000.0 nM, Table 14), 87%. The substance further registered an IC50 in data set [2] (Table 14) of 191 nM.
On to “569228 (antisense eT*eT*kG*kA*kT*dT*dT*dA*dA*dT*dG*dG*kT*kT*kG*e[5mC]) [compound 569228]”, for which, in data set [1] (250 nM ASO, Table 7), the “% inhibition” value came to 67%. In addition, the “percent inhibition of AR” value in data set [2] (31.25 nM, Table 8) is listed as 26%; in data set [2] (62.5 nM, Table 8) it was 43%; in data set [2] (62.5 nM, Table 10), 29%; in data set [2] (125.0 nM, Table 8), 62%; in data set [2] (125.0 nM, Table 10) it was 44%; in data set [2] (500.0 nM, Table 8), 88%. For the same substance, the “percent inhibition of AR” value in data set [2] (500.0 nM, Table 10) is given as 77%; in data set [2] (1000.0 nM, Table 8), 92%; in data set [2] (1000.0 nM, Table 10), 87%. Also, the half-maximal inhibitory concentration (IC50) in data set [2] (Table 8) was 90 nM; in data set [2] (Table 10), 158 nM.
For the substance “569229 (antisense eG*eT*kT*kG*kA*dT*dT*dT*dA*dA*dT*dG*kG*kT*kT*eG) [compound 569229]”, in data set [1] (1,000 nM ASO, Table 13), the “% inhibition” value is reported as 57%. For the same substance, the “percent inhibition of AR” value is 16% in data set [2] (31.25 nM, Table 14); 14% in data set [2] (62.5 nM, Table 14); 36% in data set [2] (125.0 nM, Table 14); 74% in data set [2] (500.0 nM, Table 14); 84% in data set [2] (1000.0 nM, Table 14). The same substance displayed a half-maximal inhibitory concentration (IC50) in data set [2] (Table 14) of 220 nM.

The values are drawn from USRE48461E1, “Modulation of androgen receptor expression” (Ionis Pharmaceuticals, Inc., priority 2012, dated 2021).
